US8173644B2, “3-substituted-[1,2,3]-benzotriazinone compound for enhancing glutamatergic synaptic responses” (Les Laboratoires Servier, priority 2007, dated 2012)

Columns and labels:
AMPA receptor = test: AMPA mediated whole cell currents in cultured cortical neurons (patch clamp, glutamate-induced steady-state current); assay type: cell-based, Sprague-Dawley rats; settings: cultured rat cortical neurons, 500 μM glutamate, voltage-clamped at −80 mV; read-out: EC2x value (concentration at which the glutamate induced current is increased by 100%)
Procedure: Synaptic responses mediated by AMPA receptors are increased according to the method of the invention, using the compound described herein. […] The in vitro assay is described as follows. Cortical cells were prepared from day 18-19 embryonic Sprague-Dawley rats and recorded after 3 days in culture. The extracellular solution (ECS) contained (in mM): NaCl (145), KCl (5.4), HEPES (10), MgCl2 (0.8), CaCl2 (1.8), glucose (10), sucrose (30); pH. 7.4. In order to block the voltage-gated sodium currents, 40 nM TTX was added to the recording solution. […]
The whole-cell current was measured with patch-clamp amplifier (Axopatch 200B), filtered at 2 kHz, digitized at 5 kHz and recorded on a PC with pClamp 8. […] A baseline response for each cell was recorded using a 1 s pulse of 500 μM glutamate dissolved in ECS. Responses to test compound were then determined by application of a 10 s pulse of test compound followed by a 1 s pulse of the same concentration of test compound plus 500 μM glutamate and then 10 s of saline. This pulse sequence was repeated until a stable reading was obtained, or until sufficient data points were measured to allow extrapolation to a calculated maximum change.
The mean value of plateau current between 600 ms to 900 ms after application of glutamate or test compound plus glutamate was calculated and used as the parameter to measure the drug effect. […]

[1] = test system: field EPSP (perforant path / dentate gyrus of the hippocampus); test: In vivo physiological testing: field EPSP in dentate gyrus of hippocampus of anesthetized animals; settings: dose of 5 mg/kg, iv administration
Procedure: The physiological effects of the invention compound were tested in vivo in anesthetized animals according to the following procedures.
Animals are maintained under anesthesia by phenobarbital administered using a Hamilton syringe pump. Stimulating and recording electrodes are inserted into the perforant path and dentate gyrus of the hippocampus, respectively. Once electrodes are implanted, a stable baseline of evoked responses are elicited using single monophasic pulses (100 μs pulse duration) delivered at 3/min to the stimulating electrode. Field EPSPs are monitored until a stable baseline is achieved (about 20-30 min), after which a solution of test compound in HPCD is injected intraperitoneally and evoked field potentials are recorded. Evoked potentials are recorded for approximately 2 h following drug administration or until the amplitude of the field EPSP returns to baseline. In the latter instance, it is common that an iv administration is also carried out with an appropriate dose of the same test compound.

`O=C1c2cc3nnn(CCc4cccc(F)c4)c(=O)c3cc2OCN1C1CC1` [8-Cyclopropyl-3-[2-(3-fluorophenyl)ethyl]-7,8-dihydro-3H-[1,3]oxazino[6,5-g][1,2,3]-benzotriazine-4,9-dione] was tested. Which EC2x (concentration that doubles the glutamate-induced current) (AMPA receptor) did it give?
Its EC2x (concentration that doubles the glutamate-induced current) is 100 nM.

What about the “increase in the amplitude of the field EPSP” value [1] of the same compound?
Its value is 10%.
